According to patent publication US20250009819A1, “NOVEL PROBIOTICS AND USE THEREOF” (PBLBIOLAB CO., LTD., priority 2021, published 2025):

What was measured:
gut microbiota = assay: LPS production in gut microbiota (ELISA); format: cell-based; details: human feces culture; lactic acid bacteria 1×10^6 CFU/mL; anaerobic 24 hr
Experimental: Fresh human feces were suspended in anaerobic medium (GAM, Nissui Pharmaceutical Co., Ltd., Japan) and allowed to stand for 10 min. The supernatant was diluted with 10,000-fold anaerobic medium, 0.05 mL of the dilution was transplanted into 5 mL of freshly made anaerobic medium, and lactic acid bacteria (1×10^6 CFU/mL) were implanted and incubated anaerobically for 24 hr.

[1] = Antioxidant activity (DPPH, in vitro); format: biochemical; details: DPPH 0.2 mM; lactic acid bacteria suspension 1×10^8 CFU/ml; 37° C. 20 min
Experimental: DPPH (2,2-Diphenyl-1-picrylhydrazyl) was dissolved in ethanol to a concentration of 0.2 mM to prepare DPPH solution. Lactic acid bacteria suspension (1×10^8 CFU/ml) or vitamin C solution (1 g/ml) was added to 0.1 ml of the above DPPH solution and incubated at 37° C. for 20 min. The culture was centrifuged at 3000 rpm for 5 min to obtain a supernatant. The absorbance of the supernatant was then measured at 517 nm and the antioxidant activity of the lactic acid bacteria was calculated.

Neuropeptide Y (NPY) = Neuropeptide Y (NPY) expression in PC12 phaeochromocytoma cells; format: cell-based; details: LPS 200 ng/ml; lactic acid bacteria 1×10^4 CFU/ml; 24 hr
Experimental: (§1) PC12 cells obtained from the Korean Cell Line Bank were cultured in DMEM medium supplemented with 10% FBS and 1% antibiotics, and dispensed at 1×10^6 cells per well in a 12-well plate. Then, LPS (200 ng/ml) was added to each well along with lactic acid bacteria (1×10^4 CFU/ml) and incubated for 24 hr. The cells and supernatants were collected, sonicated and centrifuged, and the amount of NPY in the supernatant was measured by ELISA kit.

BDNF = BDNF expression in SH-SY5Y cells; format: cell-based; details: LPS 200 ng/ml; lactic acid bacteria 1×10^4 CFU/ml; 24 h
Experimental: as §1, with “SH-SY5Y” for “PC12”, “2×10^6” for “1×10^6”, “h.” for “hr.”, “BDNF” for “NPY”

TNF-α = TNF-α expression in LPS-treated macrophages (ELISA); format: cell-based, C57BL/6 mice; details: macrophages treated with lactic acid bacteria and LPS for 24 hours
Experimental: (§2) C57BL/6 mice (male, 6 weeks old, 20-23 g) were subjected to an intraperitoneal injection of 2 ml of sterile 4% thioglycolate solution, and after 96 hours, the mice were anesthetized and injected with 8 ml of RPMI 1640 medium through the peritoneal cavity. Then, after 5-10 minutes, the RPMI medium (macrophages) in the mouse peritoneal cavity was extracted, centrifuged at 1000 g for 10 minutes, and washed again with RPMI 1640 medium twice. Macrophages were seeded in 24-well plates at a count of 0.5×10^6 in each well, and treated with lactic acid bacteria and LPS, an inflammatory response-inducing substance, for 24 hours. TNF-α and IL-10 cytokine expression amount in the culture supernatant was then measured by ELISA Kit.

IL-10 = IL-10 expression in LPS-treated macrophages (ELISA); format: cell-based, C57BL/6 mice; details: macrophages treated with lactic acid bacteria and LPS for 24 hours
Experimental: as §2

Clostridium difficile = Clostridium difficile proliferation in gut microbiota (PCR); format: cell-based; details: human feces culture; lactic acid bacteria 1×10^6 CFU/mL; anaerobic 24 hr
Experimental: Fresh human feces were suspended in anaerobic medium (GAM, Nissui Pharmaceutical Co., Ltd., Japan) and allowed to stand for 10 min. The supernatant was diluted with 10,000-fold anaerobic medium, 0.05 mL of the dilution was transplanted into 5 mL of freshly made anaerobic medium, and lactic acid bacteria (1×10^6 CFU/mL) were implanted and incubated anaerobically for 24 hr. This culture medium was divided into two, one was centrifuged (5000 rpm, 20 minutes), the precipitated DNA was isolated using the QIAamp DNA stool mini kit (Qiagen, Germany), and Clostridium difficile (primer: forward, 5′-[…]-3′ (SEQ ID NO: 4); reverse, 5′-[…]-3′ (SEQ ID NO: 5) was quantified by PCR. The reaction product was first treated at 95° C. for 30 seconds, followed by 42 cycles of 5 seconds at 95° C. and 30 seconds at 72° C. for analysis. In addition, one culture medium was sonicated, centrifuged, and filter-sterilized, and the amount of LPS in the supernatant was measured using an ELISA kit.

Substance	Gut microbiota Inhibition of LPS production (gut microbiota)	Antioxidant activity [1]	PC12 cell Induction of NPY expression (Neuropeptide Y (NPY))	SHSY5Y cell Induction of BDNF expression (BDNF)	Macrophage Inhibition of TNF-α expression (TNF-α)	Macrophage Induction of IL-10 expression (IL-10)	Gut microbiota Inhibition of difficile bacteria proliferation (Clostridium difficile)
Bifidobacterium adolescentis NK220	− (not or less than 20% (−; <20%))	+ (weakly (+; >20-60%))	− (not or less than 20% (−; <20%))	+ (weakly (+; >20-60%))	+ (weakly (+; >20-60%))	+ (weakly (+; >20-60%))	+ (weakly (+; >20-60%))
Bifidobacterium adolescentis NK221	+ (weakly (+; >20-60%))	+ (weakly (+; >20-60%))	+ (weakly (+; >20-60%))	− (not or less than 20% (−; <20%))	− (not or less than 20% (−; <20%))	− (not or less than 20% (−; <20%))	+ (weakly (+; >20-60%))
Bifidobacterium adolescentis NK222	+ (weakly (+; >20-60%))	+ (weakly (+; >20-60%))	+ (weakly (+; >20-60%))	− (not or less than 20% (−; <20%))	+ (weakly (+; >20-60%))	+ (weakly (+; >20-60%))	+ (weakly (+; >20-60%))
Bifidobacterium bifidum NK223	− (not or less than 20% (−; <20%))	+ (weakly (+; >20-60%))	− (not or less than 20% (−; <20%))	+ (weakly (+; >20-60%))	+ (weakly (+; >20-60%))	+ (weakly (+; >20-60%))	− (not or less than 20% (−; <20%))
Bifidobacterium bifidum NK224	+ (weakly (+; >20-60%))	+ (weakly (+; >20-60%))	+ (weakly (+; >20-60%))	− (not or less than 20% (−; <20%))	− (not or less than 20% (−; <20%))	− (not or less than 20% (−; <20%))	+ (weakly (+; >20-60%))
Bifidobacterium catenulatum NK225	− (not or less than 20% (−; <20%))	+ (weakly (+; >20-60%))	− (not or less than 20% (−; <20%))	− (not or less than 20% (−; <20%))	+ (weakly (+; >20-60%))	+ (weakly (+; >20-60%))	+ (weakly (+; >20-60%))
Bifidobacterium catenulatum NK226	− (not or less than 20% (−; <20%))	+ (weakly (+; >20-60%))	− (not or less than 20% (−; <20%))	+ (weakly (+; >20-60%))	− (not or less than 20% (−; <20%))	− (not or less than 20% (−; <20%))	+ (weakly (+; >20-60%))
Bifidobacterium longum NK217	− (not or less than 20% (−; <20%))	+ (weakly (+; >20-60%))	− (not or less than 20% (−; <20%))	− (not or less than 20% (−; <20%))	+ (weakly (+; >20-60%))		− (not or less than 20% (−; <20%))
